Experimental data reported in patent publication US8309550B2, “Kinase inhibitors and their use as pharmaceutical agents” (Shanghai Genomics, Inc., priority 2011, dated 2012).
Like-named read-outs stand apart in the source and are kept apart here.

Key:
THP-1 = experiment: 72 h MTT cell viability THP-1; type: cell-based; conditions: Homo sapiens
Description: (§1) MIT cytotoxicity assay. The compounds of the invention were subjected to a standard cellular proliferation assay using human cell lines. HeLa cells (Human cervix adenocarcinoma cell line, ATCC NO, CCL-2); A549 cells (Human lung carcinoma cells line, ATCC NO, CCL-185); U2OS cells (Human osteosarcoma cell line, ATCC NO, HTB-96); Eca-109 cells (Human esophageal carcinoma cell line); HepG2 (Human hepatocellular liver carcinoma cell line, ATCC NO, HB-8065); K562 cells (Human chronic myelogenous leukemia cell line, ATCC NO, CCL-243); SK-MEL-28 (Human malignant melanoma cell line, ATCC NO, HTB-72); Molt-4 (Human acute lymphoblastic leukemia cell line, ATCC NO, CRL-1582); H460 (Human large cell lung cancer cell line, ATCC NO, HTB-177); MDA-MB-231 (Human breast adenocarcinoma cell line, ATCC NO, HTB-26); MCF7 (Human breast adenocarcinoma cell line, ATCC NO, HTB-22); ACHN (Human renal cell adenocarcinoma cell line, ATCC NO, CRL-1611); PC-3M (Human prostate adenocarcinoma cell line, ATCC NO CRL-1435); HL60 (Human acute promyelocytic leukemia cell line, ATCC NO, CCL-240); THP-1 (Human acute monocytic leukemia, ATCC NO, TIB-202); Jurkat (Human acute T cell leukemia cell line, ATCC NO, CRL-2063); HCT-116 (Human colorectal carcinoma cell line, ATCC NO, CCL-247); HT-29 (Human colorectal adenocarcinoma cell line, ATCC NO, HTB-38™); WI-38 (Human normal lung cell line, ATCC NO, CCL-75); MRC-5 (Human normal lung cell line, ATCC NO, CCL-171).
(§2) HepG2, MDA-MB-231, WI-38 and MRC-5 cells were obtained from Shanghai Institute of Cell Biology, Chinese Academy of Sciences (Shanghai 200031, China). A549, HeLa, K562, MCF7, ACHN, H460, U2OS, Eca-109, MCF7, HL60, THP-1, Jurkat, HCT-116, HT-29, PC-3M, SK-MEL-28, Molt-4, H460 and […] cells were purchased from ATCC (American Type Culture Collection, USA).
(§3) Standard 72 h MTT (thiazolye blue; 3-[4,5-dimethylthiazol-2-yl]-2,5-diphenyltetrazolium bromide) assays were performed. Briefly, the cell lines used in this study were recovered and cultured according to the conditions recommended. 4000 cells per well were seeded into 96-well plates according to doubling time and incubated overnight at 37° C. Compounds were prepared in DMSO and a ½ dilution series in 100 μl cell culture media, added to cells (in duplicates) with the final DMSO concentration of 0.025%, and incubated for 72 hrs at 37° C. MTT solution (5 mg/ml) was added at 10 μl per well and incubated in the dark at 37° C. for 4 hr. Culture medium and MTT solution was removed. MTT dye was solubilised with 100 μl per well of DMSO with agitation. Absorbance was read at 562 nm and data analyzed using Sigmoid curve-fitting software Origin 6.0 (MicroCal, LLC, USA) to determine IC50 value.

CDK9T1 = CDK9T1 (Homo sapiens, UniProt P50750); experiment: Kinase assay CDK9T1 (Table I); type: biochemical; conditions: read-out: Kinase inhibition, IC50 CDK9T1
Chain of CDK9T1 (P50750 whole entry): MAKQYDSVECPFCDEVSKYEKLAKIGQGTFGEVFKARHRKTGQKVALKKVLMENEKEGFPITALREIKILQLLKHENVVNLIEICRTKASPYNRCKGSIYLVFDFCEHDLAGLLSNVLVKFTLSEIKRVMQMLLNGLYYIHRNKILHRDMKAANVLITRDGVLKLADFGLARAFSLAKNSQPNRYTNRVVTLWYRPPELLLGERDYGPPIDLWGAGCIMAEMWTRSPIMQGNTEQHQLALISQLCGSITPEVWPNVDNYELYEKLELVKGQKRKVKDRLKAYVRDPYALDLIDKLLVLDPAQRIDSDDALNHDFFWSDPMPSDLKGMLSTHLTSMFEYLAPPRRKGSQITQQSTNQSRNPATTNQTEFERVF
Chain of CDK9T1 (O60563 whole entry partner): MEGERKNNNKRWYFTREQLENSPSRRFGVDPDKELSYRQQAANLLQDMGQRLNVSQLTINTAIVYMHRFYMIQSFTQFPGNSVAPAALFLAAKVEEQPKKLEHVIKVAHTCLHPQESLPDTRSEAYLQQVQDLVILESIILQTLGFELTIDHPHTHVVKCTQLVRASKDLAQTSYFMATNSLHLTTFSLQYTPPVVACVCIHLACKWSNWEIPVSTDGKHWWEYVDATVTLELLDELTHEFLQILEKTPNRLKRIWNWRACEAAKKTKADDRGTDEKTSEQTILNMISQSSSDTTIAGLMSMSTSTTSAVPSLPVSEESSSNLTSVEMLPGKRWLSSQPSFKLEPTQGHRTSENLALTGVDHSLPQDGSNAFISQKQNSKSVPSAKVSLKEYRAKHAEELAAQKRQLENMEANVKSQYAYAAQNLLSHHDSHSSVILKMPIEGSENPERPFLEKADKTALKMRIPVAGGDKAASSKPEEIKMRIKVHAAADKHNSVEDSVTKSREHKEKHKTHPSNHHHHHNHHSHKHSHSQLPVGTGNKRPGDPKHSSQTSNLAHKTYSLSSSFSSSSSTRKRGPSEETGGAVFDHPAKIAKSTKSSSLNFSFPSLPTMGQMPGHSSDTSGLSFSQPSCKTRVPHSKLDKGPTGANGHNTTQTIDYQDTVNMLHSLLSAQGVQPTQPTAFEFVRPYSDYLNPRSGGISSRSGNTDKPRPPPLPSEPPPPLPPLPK

HeLa cells = experiment: 72 h MTT cytotoxicity assay HeLa; type: cell-based; conditions: Homo sapiens
Description: as §1, §2, §3

A549 cells = experiment: 72 h MTT cytotoxicity assay A549; type: cell-based; conditions: Homo sapiens; A549, 72 hrs
Description: as §1, §2, §3

U2OS cells = experiment: 72 h MTT cytotoxicity assay U2OS; type: cell-based; conditions: Homo sapiens
Description: as §1, §2, §3

K562 cells = experiment: 72 h MTT cytotoxicity assay K562; type: cell-based; conditions: Homo sapiens; K562, 72 hrs
Description: as §1, §2, §3

MCF7 = experiment: 72 h MTT cytotoxicity assay MCF7; type: cell-based; conditions: Homo sapiens; MCF7, 72 hrs
Description: as §1, §2, §3

SK-MEL-28-luc = experiment: 72 h MTT cytotoxicity assay SK-MEL-28-luc; type: cell-based; conditions: Homo sapiens
Description: as §1, §2, §3

Molt-4-luc = experiment: 72 h MTT cytotoxicity assay Molt-4-luc; type: cell-based; conditions: Homo sapiens
Description: as §1, §2, §3

MDA-MB-231-luc = experiment: 72 h MTT cell viability MDA-MB-231-luc; type: cell-based; conditions: Homo sapiens
Description: as §1, §2, §3

PC-3M-luc = experiment: 72 h MTT cell viability PC-3M-luc; type: cell-based; conditions: Homo sapiens
Description: as §1, §2, §3

HL-60 = experiment: 72 h MTT cell viability HL-60; type: cell-based; conditions: Homo sapiens
Description: as §1, §2, §3

WI-38 = experiment: 72 h MTT cell viability WI-38 (normal lung); type: cell-based; conditions: Homo sapiens; WI-38, normal lung cell line
Description: as §1, §2, §3

HT-29 = experiment: 72 h MTT cell viability HT-29; type: cell-based; conditions: Homo sapiens
Description: as §1, §2, §3

MRC-5 = experiment: 72 h MTT cell viability MRC-5 (normal lung); type: cell-based; conditions: Homo sapiens, MRC5
Description: as §1, §2, §3

[1] = THP-1, Table III, read-out: Cellular effect in mammalian cells IC50 THP-1
[2] = HT29, Table III, read-out: Cellular effect in mammalian cells IC50 HT29
[3] = MRC-5, Table III, read-out: Cellular effect in mammalian cells IC50 MRC-5
[4] = THP-1, read-out: Cell Viability IC50 THP-1
[5] = read-out: Cell Viability IC50 HT-29
[6] = MRC-5, normal lung cell line, read-out: Cell Viability IC50 MRC-5

Structure (SMILES) | IC50 (THP-1; [1]) [µM] | IC50 (CDK9T1) [µM] | IC50 (HeLa cells) [µM] | IC50 (A549 cells) [µM] | IC50 (U2OS cells) [µM] | IC50 (K562 cells) [µM] | IC50 (MCF7) [µM] | IC50 (SK-MEL-28-luc) [µM] | IC50 (Molt-4-luc) [µM] | IC50 (MDA-MB-231-luc) [µM] | IC50 (PC-3M-luc) [µM] | IC50 (HL-60) [µM] | IC50 (WI-38) [µM] | IC50 (HT-29; [2]) [µM] | IC50 (MRC-5; [3]) [µM] | IC50 (THP-1; [4]) [µM] | IC50 (HT-29; [5]) [µM] | IC50 (MRC-5; [6]) [µM]
CCCn1cc(-c2ccnc(Nc3cccc(S(N)(=O)=O)c3)n2)c2nc(Cl)cc(C)c21 [SG53] | 1.04 | – | – | – | – | – | – | – | – | – | – | – | – | – | – | – | – | –
CCCn1cc(-c2ccnc(Nc3ccc(C)c(S(=O)(=O)N4CCOCC4)c3)n2)c2ccncc21 [Compound 102, N-(4-Methyl-3-(morpholinosulfonyl)phenyl)-4-(1-propyl-1H-pyrrolo[2,3-c]pyridin-3-yl)pyrimidin-2-amine] | – | 0.0004 | 0.49 | 0.57 | 0.57 | 1.44 | 1.3 | 0.99 | 0.23 | 0.75 | 1.13 | 0.23 | – | – | – | – | – | –
CCCn1cc(-c2ccnc(Nc3ccc(O)cc3)n2)c2cccnc21 [Compound 15, 4-(4-(1-Propyl-1H-pyrrolo[2,3-b]pyridin-3-yl)pyrimidin-2-ylamino)phenol] | – | 1.4 | 10.4 | 4.98 | 7.44 | 9.81 | 0.12 | 9.43 | 2.46 | 5.94 | 10.5 | – | > 10 | – | – | – | – | –
CCCn1cc(-c2ccnc(Nc3ccc(C)c(S(=O)(=O)N4CCOCC4)c3)n2)c2ccncc21 [SG52] | 0.41 | – | – | – | – | – | – | – | – | – | – | – | – | 0.45 | 1.63 | – | – | –
CCCn1cc(-c2ccnc(Nc3ccc(C)c(S(=O)(=O)N4CCOCC4)c3)n2)c2cccnc21 [Compound 24, N-(4-Methyl-3-(morpholinosulfonyl)phenyl)-4-(1-propyl-1H-pyrrolo[2,3-b]pyridin-3-yl)pyrimidin-2-amine] | – | 1.01 | 1.6 | 3.69 | 3.3 | 3.68 | 3.48 | 3.05 | 4.51 | – | 5.02 | 3.49 | > 10 | – | – | 5.25 | 1.35 | 3.88
CCCn1cc(-c2ccnc(Nc3cccc(S(N)(=O)=O)c3)n2)c2cccnc21 [Compound 22, 3-(4-(1-Propyl-1H-pyrrolo[2,3-b]pyridin-3-yl)pyrimidin-2-ylamino)benzenesulfonamide] | – | 0.097 | 1.67 | 2.82 | 2.13 | 1.42 | 1.13 | 2.72 | 2.45 | – | 3.19 | 2.09 | – | – | – | 3.26 | 1.46 | 5.17
CCCn1cc(-c2ccnc(Nc3ccc(S(N)(=O)=O)cc3)n2)c2ccncc21 [Compound 112, 4-(4-(1-Propyl-1H-pyrrolo[2,3-c]pyridin-3-yl)pyrimidin-2-ylamino)benzenesulfonamide] | – | 0.0007 | 0.0004 | 0.03 | 0.01 | 0.0011 | 0.0014 | 0.0038 | 0.02 | – | 0.027 | 0.008 | > 10 | – | – | 0.004 | 0.05 | > 10
CCCn1cc(-c2ccnc(Nc3cccc(S(N)(=O)=O)c3)n2)c2ccnc(Cl)c21 [Compound 96, 3-(4-(7-chloro-1-propyl-1H-pyrrolo[2,3-c]pyridin-3-yl)pyrimidin-2-ylamino)benzenesulfonamide] | – | 0.0086 | 0.15 | 0.12 | 0.23 | 0.22 | 0.25 | 0.26 | 0.22 | – | 0.48 | 0.37 | > 10 | – | – | 0.36 | 0.48 | 0.89
CCCn1cc(-c2ccnc(Nc3ccc(S(N)(=O)=O)cc3)n2)c2nc(Cl)cc(C)c21 [SG54] | 2.95 | – | – | – | – | – | – | – | – | – | – | – | – | 0.15 | 3.97 | – | – | –
CCn1cc(-c2ccnc(Nc3cccc(S(N)(=O)=O)c3)n2)c2cccnc21 [Compound 18, 3-(4-(1-Ethyl-1H-pyrrolo[2,3-b]pyridin-3-yl)pyrimidin-2-ylamino)benzenesulfonamide] | – | 0.014 | 1.7 | 1.21 | 3.07 | 6.69 | 0.71 | 8.59 | 1.05 | 3.3 | 3.55 | 1.85 | 11.1 | – | – | 5.37 | 0.81 | 13.3
CCCn1cc(-c2ccnc(Nc3cccc(O)c3)n2)c2cccnc21 [Compound 16, 3-(4-(1-Propyl-1H-pyrrolo[2,3-b]pyridin-3-yl)pyrimidin-2-ylamino)phenol] | – | 0.14 | 14.2 | 3.33 | 7.42 | 7.68 | 2.17 | 8.51 | 3.82 | 5.27 | 5.11 | – | > 10 | – | – | – | – | –
CCCn1cc(-c2ccnc(Nc3cccc(S(N)(=O)=O)c3)n2)c2nc(Cl)cc(C)c21 [Compound 42, 3-(4-(5-Chloro-7-methyl-1-propyl-1H-pyrrolo[3,2-b]pyridin-3-yl)pyrimidin-2-ylamino)benzenesulfonamide] | – | 0.041 | 9.93 | 1.73 | 1.86 | > 10 | > 10 | 9.45 | 4.79 | 1.28 | 4.06 | 1.14 | – | – | – | – | 0.2 | 14.6
CCn1cc(-c2ccnc(Nc3cccc(C#N)c3)n2)c2cccnc21 [Compound 20, 3-(4-(1-Ethyl-1H-pyrrolo[2,3-b]pyridin-3-yl)pyrimidin-2-ylamino)benzonitrile] | – | 0.15 | 5.55 | 3.07 | > 10 | 6.11 | > 10 | 7.79 | 3.43 | 4.68 | > 10 | 3.41 | – | – | – | 2.08 | 2.93 | 15.1
CCCn1cc(-c2ccnc(Nc3cccc(S(N)(=O)=O)c3)n2)c2ccncc21 [Compound 111, 3-(4-(1-Propyl-1H-pyrrolo[2,3-c]pyridin-3-yl)pyrimidin-2-ylamino)benzenesulfonamide] | – | 0.0006 | 0.01 | 0.01 | 0.03 | 0.03 | 0.08 | 0.01 | 0.01 | 0.03 | 0.006 | 0.01 | – | – | – | 0.01 | – | 0.06
CCCn1cc(-c2ccnc(Nc3cccc(S(N)(=O)=O)c3)n2)c2ccncc21 [SG51] | – | – | – | – | – | – | – | – | – | – | – | – | – | 0.02 | – | – | – | –
